Measurements from patent publication US20130317052A1, “QUINOLINE DERIVATIVE COMPOUND, METHOD FOR PREPARING SAME, AND PHARMACEUTICAL COMPOSITION CONTAINING SAME” (Dong-A ST Co., Ltd., priority 2010, published 2013).

Tests used:
[1] = Gastric emptying effect on normal rat, semi-solid test meal; type: in vivo, Sprague-Dawley rats; conditions: for Gastric Emptying (%): 45 min before test meal, stomach weighed 35 min after meal
Method: Gastric emptying activity of the compounds of the present invention was examined in the following experiment.
Sprague-Dawley rats, each weighing 200˜250 g, were acclimated for one week at a temperature of 22˜24° C. and a humidity of 60-80% while a standard diet and water were provided, and then were divided into groups according to weight. Thereafter, they were starved for 24 hrs before an experiment while water was provided. From 3 hrs before the experiment, no more water was provided. […] For control 1, only 1 mL of a 3% hydroxypropylmethyl cellulose solution was used while sisapride was orally administered at a dose of 1 mg/kg in 1 mL of a 3% hydroxypropylmethyl cellulose to control 2.
After 45 min, a semi-solid test meal prepared by mashing feeds in water, was orally administered in an amount of 2 mL to each rat. After 35 min, the SD rats were killed, and the stomach containing the semi-solid test meal was excised, and weighed. Subsequently, the stomach was washed with distilled water to remove the gut content, dried, and weighed again, in order to calculate the weight of the semi-solid test meal left in the gut.
Gastric Emptying(%)=[1−(weight of semi-solid test meal left in gut/weight of semi-solid test meal at 0-time)]×100 [Equation 3]
(weight of semi-solid test meal at 0-time means weight of the semi-solid test meal left in the rat killed immediately after the administration of the semi-solid test meal)

[2] = target: T1, dopamine-D2 receptor (human dopamine D2s) (Homo sapiens, UniProt P14416); assay: Assay for affinity for dopamine receptor: competitive inhibition of [3H]spiperone binding; conditions: 10 μM compound; 0.16 nM [3H]spiperone; CHO cells transfected with human dopamine D2s gene; mean of two experiments
T1 construct: expressed in transfected cells; host or cells: CHO cells
T1 sequence (P14416 1-414 isoform P14416-2): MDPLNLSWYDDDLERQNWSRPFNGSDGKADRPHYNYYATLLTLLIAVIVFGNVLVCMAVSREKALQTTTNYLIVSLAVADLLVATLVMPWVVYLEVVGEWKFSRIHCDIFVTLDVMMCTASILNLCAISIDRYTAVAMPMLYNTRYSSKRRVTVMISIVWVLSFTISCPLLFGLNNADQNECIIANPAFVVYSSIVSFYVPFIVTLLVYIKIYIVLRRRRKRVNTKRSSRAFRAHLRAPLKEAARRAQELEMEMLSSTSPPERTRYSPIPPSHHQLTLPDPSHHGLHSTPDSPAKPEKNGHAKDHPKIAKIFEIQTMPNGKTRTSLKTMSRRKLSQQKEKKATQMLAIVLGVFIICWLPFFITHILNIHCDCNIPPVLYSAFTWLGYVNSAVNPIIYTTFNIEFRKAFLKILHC
Method: Affinity of the compounds of the present invention for the dopamine-D2 receptor, which is found in the wall of the gastric tract of mammals and inhibits gastrointestinal motility, was determined by measuring competitive inhibition against the binding to the receptor of a radio-labeled ligand which is known for its affinity for the receptor. In this regard, the experiment was performed according to the method described in [Heys G et al. Mol Endocrinol. 6:920, 1992] and [Grandy D K et al. Proc Natl Acad Sci USA. 86:9762, 1989].
In tris-HCl buffer ([…], pH 7.4, 120 mM NaCl, 5 mM KCl, 2 mM CaCl2, 1 mM MgCl2) 150 μg of Chinese hamster ovary (CHO) cells transfected with a human dopamine D2s gene were incubated at 25° C. for 120 min with 0.16 nM of tritium Spiperone (^3[H] Spiperon [NEN, 250 μCi]) and 10 μM of the compound of interest of the present invention. After completion of the reaction, the reaction mixture was filtered through Whatman GF/B filter (unifilter-96, Lot: 6005177, PerkinElmer) to separate ligand-bound receptors. These bound receptors were washed three times with a Tris-HCl buffer. Then 10 mL of a scintillation cocktail (Lot: 03999, Fluka) was added and reacted for 16 hrs or longer to measure radiation activity using a beta-counter (Packcard) in order to calculate the quantity of tritium spiperone bound to the receptor. Meanwhile, 10 μM of Haloperidol (H1512, Sigma) was incubated in the presence of 0.16 nM tritium Spiperone to determine a nonspecific binding value. The experiment was independently carried out twice, and receptor affinity was calculated using the following Equation 1.
Receptor Affinity(%)={(Total CPM−Nonspecific Binding CPM−CPM of tritium Spiperone remaining after addition of interest compound of the present invention)/(Total CPM−Nonspecific Binding CPM)}×100 Equation 1
(CPM: counter per minute)

serotonin-1B receptor = target: T2, serotonin-1B receptor (Rattus norvegicus, UniProt P28564); assay: Assay for affinity for serotonin-1B receptor: competitive inhibition of [125I]cyanopindolol binding to rat cerebral cortex membranes; conditions: 10 μM compound, 10 pM [125I]cyanopindolol, mean of two experiments
T2 construct: cell membranes of the cerebral cortex excised from male Winstar rats; from tissue; host or cells: rat cerebral cortex membranes
T2 sequence (P28564 whole entry): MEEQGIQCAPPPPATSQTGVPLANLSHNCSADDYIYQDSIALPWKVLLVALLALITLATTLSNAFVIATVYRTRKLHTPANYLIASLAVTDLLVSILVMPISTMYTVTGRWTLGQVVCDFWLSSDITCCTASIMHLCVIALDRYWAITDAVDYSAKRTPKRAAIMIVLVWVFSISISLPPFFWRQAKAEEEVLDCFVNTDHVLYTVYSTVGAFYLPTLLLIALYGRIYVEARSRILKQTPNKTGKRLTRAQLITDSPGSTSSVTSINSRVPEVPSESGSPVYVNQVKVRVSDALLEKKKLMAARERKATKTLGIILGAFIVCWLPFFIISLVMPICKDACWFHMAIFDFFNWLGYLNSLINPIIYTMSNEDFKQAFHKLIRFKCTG
Method: Compounds of the present invention were examined for affinity for the serotonin-1B receptor which can exert a relaxation effect on the stomach to relieve impaired gastric accommodation of functional dyspepsia patients in response to an agonist.
In a Tris-HCl buffer (50 mM Tris-HCl, pH 7.4, 120 mM NaCl, 5 mM KCl, 2 mM CaCl2, 1 mM MgCl2), 4 mg of cell membranes of the cerebral cortex excised from male Winstar rats, each weighing 175±25 g, was incubated at 37° C. for 1.5 hrs with 10 pM of ^125[I] cyanopindolol (PerkinElmer, 100 μCi) and 10 μM of the compound of interest of the present invention per well. After completion of the incubation, the incubation mixture was filtered through Whatman GF/B filter (unifilter-96, Lot: 6005177, PerkinElmer) to separate ligand-bound receptors. These bound receptors were washed three times with 5 mL of a Tris-HCl buffer. Then, 10 mL of a scintillation cocktail (Lot: 03999, Fluka) was added and reacted for 16 hrs or longer to measure radiation activity using a beta-counter (Packcard) in order to calculate the quantity of ^125[I] cyanopindolol bound to the receptor.
Meanwhile, 10 μM of serotonin (H9523, Sigma) was incubated in the presence of 10 pM of ^125[I] cyanopindolol to determine a nonspecific binding value. The experiment was independently carried out twice, and receptor affinity was calculated using the following Equation 2. […]

Row | Affinity (%) [2] [%] | Affinity (%) (serotonin-1B receptor) | SMILES | Gastric Emptying (%) ([1]; 10 mg/kg oral (Table 3)) | Gastric Emptying (%) ([1]; 10 μg/kg oral) | increase of gastric emptying compared to control 1 (no drug) ([1]; 10 μg/kg oral, normal rat)
1 |  |  | COc1cc(N)c(Cl)cc1C(=O)NC1CCN(CCCOc2ccc(F)cc2)CC1OC (stereo not drawn) [Control 2, sisapride, reference compound] | 68.9 |  | 
2 | 75 |  | COc1ccc(C(=O)NCc2ccc(OCCN(C)C)cc2)cc1OC [Itopride, reference compound] |  |  | 
3 | 91 | 61 | COc1cc2c(cc1Oc1cc3c(cc1OC)-c1c(OC)c(OC)cc4ccnc(c14)C3=O)CCN1Cc3c(ccc(OC)c3OC)C[C@@H]21 [Compound of Example 1, (S)-1,2,10-Trimethoxy-9-(2,9,10-trimethoxy-5,8,13,13a-tetrahydro-6H-isoquino[3,2-a]isoquinolin-3-yloxy)-dibenzo[de,g]quinolin-7-one] |  | 62.3 | roughly two-fold
4 | 25 | 35 | COc1cc2c(cc1Oc1cc3c(cc1OC)CC[n+]1cc4c(OC)c(OC)ccc4cc1-3)C[C@@H]1NCCc3cc(OC)c(OC)c-2c31 [Compound of Example 2, (S)-3,9,10-Trimethoxy-2-(1,2,10-trimethoxy-5,6,6a,7-tetrahydro-4H-dibenzo[de,g]quinolin-9-yloxy)-5,6-dihydro-isoquino[3,2-a]isoquinolinylium] |  | 47.3 | 
